The values below come from paper PMC9295568, “Dual Inhibition of Vacuolar-ATPase and TMPRSS2 Is Required for Complete Blockade of SARS-CoV-2 Entry into Cells” (Antimicrobial Agents and Chemotherapy, 2022).

Counter-ions that a name gives are not always drawn. Like-named read-outs stand apart in the source and are kept apart here.

Common to all, as to assay type: cell-based
In data set [1] the test system is SARS-CoV-2 PsV (wild-type S protein). Nature of the data set: microbe, parasite or virus in culture.
Data set [2] has the same test system. Nature of the data set: microbe, parasite or virus in culture. Conditions: for IC50: Severe acute respiratory syndrome coronavirus 2, Vero-TMPRSS2 (+TMPRSS2), WT PsV, read-out: IC50, inhibition of PsV entry.
Data set [3] has as its system SARS-CoV-2 PsV B.1.1.7 (Alpha). Nature of the data set: microbe, parasite or virus in culture. Conditions: Severe acute respiratory syndrome coronavirus 2, HeLa-ACE2, read-out: IC50, inhibition of PsV entry.
In data set [4] the test system is SARS-CoV-2 PsV B.1.1.7 (Alpha). Nature of the data set: microbe, parasite or virus in culture. The note with it: Severe acute respiratory syndrome coronavirus 2, Vero/TMPRSS2, read-out: IC50, inhibition of PsV entry.
Data set [5] deals with SARS-CoV-2 PsV B.1.351 (Beta). In words: microbe, parasite or virus in culture. Conditions: Severe acute respiratory syndrome coronavirus 2, HeLa-ACE2, read-out: IC50, inhibition of PsV entry.
The subject of data set [6] is SARS-CoV-2 PsV B.1.351 (Beta). Nature of the data set: microbe, parasite or virus in culture. Conditions: Severe acute respiratory syndrome coronavirus 2, Vero/TMPRSS2, read-out: IC50, inhibition of PsV entry.
Data set [7] relates to SARS-CoV-2 PsV B.1.1.529 (Omicron). In words: microbe, parasite or virus in culture. The note with it: Severe acute respiratory syndrome coronavirus 2, HeLa-ACE2, read-out: IC50, inhibition of PsV entry.
Data set [8] has the same test system. Nature of the data set: microbe, parasite or virus in culture. Conditions: Severe acute respiratory syndrome coronavirus 2, Vero/TMPRSS2, read-out: IC50, inhibition of PsV entry.
For data set [9], the system named is authentic SARS-CoV-2 (SARS-CoV-2/Canada/ON/VIDO-01/2020/Vero'76/p2). In words: microbe, parasite or virus in culture. The note with it: for IC50: Severe acute respiratory syndrome coronavirus 2, Vero 76, read-out: IC50, authentic SARS-CoV-2.
Data set [10] has the same test system. Nature of the data set: microbe, parasite or virus in culture. The note with it: for IC50: Severe acute respiratory syndrome coronavirus 2, read-out: IC50, authentic SARS-CoV-2.
The next data set has as its system SARS-CoV-2 PsV.
Data set [11] relates to endosomal acidification in HeLa-ACE2 cells. In words: Inhibition of endosomal acidification (LysoTracker Red DND-99), HeLa-ACE2 cells. As for the experimental part:
Inhibition of endosomal acidification was measured using LysoTracker Red DND-99 (ThermoFisher). HeLa-ACE2 and Vero-TMPRSS2 cells were prepared following the above-mentioned protocol, where 10,000 cells/well of pre-seeded cells were cocultured with the same serial dilutions of the sample compounds at 37°C for 2 h. Following this, 0.1 μM final concentration of LysoTracker Red DND-99 (ThermoFisher) was added to each well and incubated for 30 min at 37°C. The cell medium was then replaced with 100 μL of FluoroBrite DMEM (ThermoFisher). Fluorescence was measured using a Synergy Neo2 Multi-Mode Assay Microplate Reader (Biotek Instruments) while employing a Texas Red filter. Data were plotted and IC50 values were calculated using Prism 9 (GraphPad).

The nature of data set [12]: Cell viability (CellTiter-Glo), HeLa-ACE2 cells. The note with it: human, read-out: half-cytotoxic concentration (CC50). On the procedure:
(§1) In order to confirm that the reduced luminescence was not related to cell toxicity, HeLa-ACE2 and Vero-TMPRSS2 cell viability upon incubation with serial dilutions of the sample compounds were tested in parallel to the neutralization assay. […] Cell viability was monitored by adding 50 μL of CellTiter-Glo reagent (Promega) to 200 μL of media containing cells. After a 10-minute incubation, 100 μL volume was transferred to a 96-well white plate (Sigma-Aldrich) to measure luminescence using a Synergy Neo2 Multi-Mode Assay Microplate Reader (Biotek Instruments). As an additional measure of cell toxicity Vero cell, lacking TMPRSS2, viability was measured using PrestoBlue (ThermoFisher). 10,000 cells/well of pre-seeded Vero cells were cocultured with the same serial dilutions of the sample compounds at 37°C for 48 h. At 48 h, 10 μL of PrestoBlue (ThermoFisher) was added to 100 μL of media containing cells. After a 2 h incubation, fluorescence was measured using a Spectromax m5e (Molecular Devices) at an excitation of 555 nm and emission of 585 nm. Data were plotted and half-cytotoxic concentration (CC50) values were calculated using Prims 9 (GraphPad).

Data set [13] has as its system endosomal acidification in Vero cells. Nature of the data set: cells. The note with it: Vero cells, 40 μM, singlet (n=1); for inhibition at 40 µM: Chlorocebus sabaeus, read-out: Percent Inhibition (%) of endosomal acidification. As for the experimental part:
Inhibition of endosomal acidification was measured using LysoTracker Red DND-99 (ThermoFisher). […] Data were plotted using Prism 9 (GraphPad).

The subject of the next data set is HeLa-ACE2 cells. In words: Cell viability (CellTiter-Glo), HeLa-ACE2 cells. Conditions: same dose range as PsV assay. As for the experimental part:
as §1
For orientation: Cellular ATP, detected with luciferase, serves as a proxy for viable cell number.

Where [14] appears, read: Severe acute respiratory syndrome coronavirus 2, HeLa-ACE2, read-out: IC50, inhibition of PsV entry, HeLa-ACE2 (-TMPRSS2), wild-type S PsV.
The mark [15] stands for this setting: HeLa-ACE2, concentrations up to 40 μM.
Where [16] appears, read: HeLa-ACE2, concentrations higher than 1 μM.

Consider `CN(C)C(=O)COC(=O)Cc1ccc(OC(=O)c2ccc(NC(=N)N)cc2)cc1` [Camostat], for which the “inhibition of PsV entry (in words)” value in data set [1] (HeLa-ACE2 cells lacking TMPRSS2) is given as “unable to inhibit”. The IC50 in data set [1] (Severe acute respiratory syndrome coronavirus 2, HeLa-ACE2, read-out: IC50, inhibition of PsV entry, HeLa-ACE2 (-TMPRSS2), WT PsV) was above 300000 nM; in [1] (setting [14]), above 200000 nM; in data set [2], 252 nM; in data set [3], above 300000 nM; in data set [4], 133 nM; in [5] it was above 300000 nM. In addition, the concentration for half-maximal inhibition (IC50) in [6] is 275 nM; in data set [7] it was above 300000 nM; in data set [8], above 7500 nM; in [9], above 100000 nM; in data set [10], 38 nM. The “inhibition of PsV entry by single compound (in words)” value in the data set on SARS-CoV-2 PsV was “neither Camostat nor bafilomycin A1 alone fully inhibited PsV entry”.

With `O=C(Nc1cc(Cl)cc(Cl)c1O)c1c(O)c(Cl)cc(Cl)c1Cl` [Oxyclozanide, oxyclozanide], in [1] (setting [15]), the “effect on infection levels (in words)” value was “did not alter”. Besides, the “effect on endosomal acidification (in words)” value in [11] (setting [15]) is listed as “did not alter”. Also, the CC50 in data set [12] was determined as 18.7 µM. Besides, the inhibition at 40 µM in data set [13] was determined as 55%.

Consider `C[C@H]1CC[C@]2(NC1)O[C@H]1C[C@H]3[C@@H]4CC[C@H]5C[C@@H](O[C@@H]6O[C@H](CO)[C@H](O[C@@H]7O[C@H](CO)[C@@H](O)[C@H](O[C@@H]8OC[C@@H](O)[C@H](O)[C@H]8O)[C@H]7O[C@@H]7O[C@H](CO)[C@@H](O)[C@H](O)[C@H]7O)[C@H](O)[C@H]6O)CC[C@]5(C)[C@H]4CC[C@]3(C)[C@H]1[C@@H]2C` [TOMATINE], for which, in [13], the inhibition at 40 µM was determined as 72%.

For the compound `CN(C)CCOc1ccc(/C(=C(/CCCl)c2ccccc2)c2ccccc2)cc1` [TOREMIPHENE CITRATE], the “Percent Inhibition (%) of endosomal acidification” value (shortened to “Percent Inhibition (%)”) in data set [13] came to 68%.

For `COC(=O)C1(C)CCCC2(C)c3ccc(O)c(C(C)C)c3CCC12` (centres unmarked) [TOTAROL-19-CARBOXYLIC ACID, METHYL ESTER], the “Percent Inhibition (%)” value in [13] was found to be 66%.

As to `CC(C)c1c(O)ccc2c1CC[C@H]1C(C)(C)CCC[C@]21C` [TOTAROL], the inhibition at 40 µM in data set [13] was 74%.

As to `Oc1cc(Cl)ccc1Oc1ccc(Cl)cc1Cl` [TRICLOSAN], in data set [13], the inhibition at 40 µM was determined as 96%.

For the compound `CN1CCN(CCCN2c3ccccc3Sc3ccc(C(F)(F)F)cc32)CC1` [TRIFLUOPERAZINE HYDROCHLORIDE], the inhibition at 40 µM in [13] stood at 77%.

`CN(C)CCCN1c2ccccc2Sc2ccc(C(F)(F)F)cc21` [TRIFLUPROMAZINE HYDROCHLORIDE]: in [13], the inhibition at 40 µM stood at 86%.

For the compound `CC(CN(C)C)CN1c2ccccc2Sc2ccccc21.CC(CN(C)C)CN1c2ccccc2Sc2ccccc21.O=C(O)C(O)C(O)C(=O)O` (centres unmarked) [TRIMEPRAZINE TARTRATE], the “Percent Inhibition (%)” value in [13] turned out to be 78%.

Turning to `CC(CN(C)C)CN1c2ccccc2CCc2ccccc21` (centres unmarked) [TRIMIPRAMINE MALEATE], in data set [13], the inhibition at 40 µM amounted to 56%.

In the case of `Cc1ccc(Sc2ccccc2N2CCNCC2)c(C)c1` [VORTIOXETINE HYDROBROMIDE], the inhibition at 40 µM in data set [13] stood at 63%.

Consider `CCOC(=O)Nc1ccc(NCc2ccc(F)cc2)nc1N` [[…]], for which the inhibition at 40 µM in data set [13] worked out at 50%.

For the compound `COc1c(O)cc2oc3cc(O)c(CC=C(C)C)c(O)c3c(=O)c2c1CC=C(C)C` [alpha-MANGOSTIN], the “Percent Inhibition (%)” value in data set [13] was determined as 86%.

Turning to `CCN(CC)Cc1cc(Nc2ccnc3cc(Cl)ccc23)ccc1O` [amodiaquine], in data set [1] (setting [14]), the half-maximal inhibitory concentration (IC50) came to 2500 nM. In [12], the CC50 was determined as 34.7 µM.

Turning to `CO/C1=C\C(C)=C\[C@@H](C)[C@@H](O)[C@@H](C)C/C(C)=C/C=C/[C@H](OC)[C@@H]([C@@H](C)[C@@H](O)[C@H](C)[C@@]2(O)C[C@@H](O)[C@H](C)[C@@H](C(C)C)O2)OC1=O` [bafilomycin A1], the IC50 in data set [1] (Severe acute respiratory syndrome coronavirus 2, HeLa-ACE2, HeLa-ACE2 (-TMPRSS2), WT PsV, read-out: IC50, inhibition of PsV entry) turned out to be 0.4 nM; in data set [2], 9.6 nM; in data set [3] it was 0.8 nM; in data set [5], 0.5 nM; in data set [6] it was 3.4 nM; in data set [7], 0.3 nM. Also, the IC50 in data set [8] is 1.9 nM; in data set [11] (HeLa-ACE2 cells) it was 0.9 nM; in data set [9], 9 nM; in data set [10], 0.4 nM. Further, the “potency of bafilomycin A1 relative to Camostat in stopping viral entry” value in data set [2] (Vero-TMPRSS2, ratio of IC50 values) was determined as 26 fold. For the same compound, the “associated cell cytotoxicity (in words)” value in the data set with HeLa-ACE2 cells is given as “without displaying any associated cell cytotoxicity”. Moreover, the “effect on SARS-CoV-2 infection titers (in words)” value in data set [9] and in [10] was “significantly reduced” each time. Besides, the “inhibition of PsV entry by single compound (in words)” value with SARS-CoV-2 PsV is “neither Camostat nor bafilomycin A1 alone fully inhibited PsV entry”.

Turning to `CCN(CC)CCCC(C)Nc1ccnc2cc(Cl)ccc12` (centres unmarked) [chloroquine], the IC50 in data set [1] (setting [14]) is 2600 nM. Besides, the CC50 in data set [12] came to 25.7 µM.

For `O=C(Nc1ccc([N+](=O)[O-])cc1Cl)c1cc(Cl)ccc1O` [niclosamide], in data set [1] (setting [16]), the “PsV infection (in words)” value is “no measurable infection”. For the same compound, the “endosomal acidification inhibition (in words)” value in [11] (setting [16]) is “efficient endosomal acidification inhibition”. For the same compound, in data set [12], the CC50 was 0.4 µM. Also, the inhibition at 40 µM in data set [13] was found to be 75%.

As to `CCN(CC)CCCC(C)Nc1c2ccc(Cl)cc2nc2ccc(OC)cc12` (centres unmarked) [quinacrine], the IC50 in data set [1] (setting [14]) was determined as 900 nM. The CC50 in data set [12] is 1.7 µM.

Turning to ABAMECTIN (avermectin B1a shown), in [13], the “Percent Inhibition (%)” value came out at 59%.

In the case of BENZALKONIUM CHLORIDE, the “Percent Inhibition (%)” value in [13] was found to be 88%.

For BITHIONATE SODIUM, the “Percent Inhibition (%)” value in data set [13] came to 67%.

As for CHLOROPHYLLIDE Cu COMPLEX Na SALT, the “Percent Inhibition (%)” value in data set [13] turned out to be 77%.

With MEPARTRICIN, the “Percent Inhibition (%)” value in data set [13] is given as 52%.

Broadly, the IC50 is the midpoint of a concentration-inhibition curve. Broadly, the inhibition is how much of the control response was suppressed.
